24 compounds from patent publication US7109193B2, “Tricyclic diazepines tocolytic oxytocin receptor antagonists” (Wyeth, priority 2001, dated 2006) can be followed below.

The target in the test is T1, human vasopressin V2 receptor subtype (Homo sapiens, UniProt P30518).
T1 construct: host or cells: CHO cells (pZeoSV vector)
Description: Vasopressin binding in Chinese Hamster Ovary cell membranes expressing human vasopressin V2 subtype receptors. To be noted: 100 nM, CHO cell membranes, [3H]arginine vasopressin, values without parentheses. Summed up: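 Radioligand displacement on membranes from CHO cells stably expressing human V2 receptor, 25 to 50 μg protein/well, in 50 mM Tris-HCl pH 7.4 with MgCl2, BSA and protease inhibitors. [^3H]arginine vasopressin (8 nM working solution) incubated 60 min at room temperature; bound label measured by filtration and scintillation counting.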

T1 sequence (P30518 whole entry): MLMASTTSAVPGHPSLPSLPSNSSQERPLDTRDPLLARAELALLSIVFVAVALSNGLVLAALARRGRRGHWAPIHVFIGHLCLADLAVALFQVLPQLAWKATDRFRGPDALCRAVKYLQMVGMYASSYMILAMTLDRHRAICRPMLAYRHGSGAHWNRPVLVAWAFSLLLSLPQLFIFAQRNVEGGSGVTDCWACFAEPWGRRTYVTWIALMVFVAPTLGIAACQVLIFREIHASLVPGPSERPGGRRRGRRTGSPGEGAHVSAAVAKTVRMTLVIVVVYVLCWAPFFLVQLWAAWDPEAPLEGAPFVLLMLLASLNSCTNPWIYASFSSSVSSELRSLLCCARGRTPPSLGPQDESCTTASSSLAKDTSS

Regarding `COc1cccc(-c2ccc(C(=O)N3Cc4ccc(C(=O)NCCC5CCCN5C)n4Cc4ccccc43)cc2OC)c1` (stereo not drawn) [Example 172, 10-[(2,3′-Dimethoxy[1,1′-biphenyl]-4-yl)carbonyl]-N-[2-(1-methyl-2-pyrrolidinyl)ethyl]-10,11-dihydro-5H-pyrrolo[2,1-c][1,4]benzodiazepine-3-carboxamide], the inhibition (usually the drop in the measured response relative to a control, in per cent) at 0.1 µM is 11%.

`COc1cccc(-c2cc(OC)c(C(=O)N3Cc4ccc(C(=O)NCCN5CCCCC5)n4Cc4ccccc43)cc2Cl)c1` [Example 156, 10-[(6-Chloro-3,3′-dimethoxy[1,1′-biphenyl]-4-yl)carbonyl]-N-[2-(1-piperidinyl)ethyl]-10,11-dihydro-5H-pyrrolo[2,1-c][1,4]benzodiazepine-3-carboxamide]: the inhibition at 0.1 µM amounted to 12%.

Regarding `C=CCN1CCN(C(=O)c2ccc3n2Cc2ccccc2N(C(=O)c2ccc(-c4ccccc4OC)c(OC)c2)C3)CC1` [Example 227, (4-Allyl-1-piperazinyl){10-[(2,2′-dimethoxy[1,1′-biphenyl]-4-yl)carbonyl]-10,11-dihydro-5H -pyrrolo[2,1-c][1,4]benzodiazepin-3-yl}methanone], the inhibition at 0.1 µM stood at 2%.

On to `COc1ccccc1-c1ccc(C(=O)N2Cc3ccc(C(=O)NCCN4CCCCC4)n3Cc3ccccc32)cc1OC` [Example 158, 10-[(2,2′-Dimethoxy[1,1′-biphenyl]-4-yl)carbonyl]-N-[2-(1-piperidinyl)ethyl]-10,11-dihydro-5H-pyrrolo[2,1-c][1,4]benzodiazepine-3-carboxamide], for which the inhibition at 0.1 µM was determined as 19%.

For the compound `COc1cc(-c2ccccc2C)c(Cl)cc1C(=O)N1Cc2ccc(C(=O)N(C)C3CCN(C)C3)n2Cc2ccccc21` (stereo not drawn) [Example 190, 10-[(6-Chloro-3-methoxy-2′-methyl[1,1′-biphenyl]-4-yl)carbonyl]-N-methyl-N-(1-methyl-3-pyrrolidinyl)-10,11-dihydro-5H-pyrrolo[2,1-c][1,4]benzodiazepine-3-carboxamide], the inhibition at 0.1 µM came out at 9%.

As for `COc1cccc(-c2cc(OC)c(C(=O)N3Cc4ccc(C(=O)N5CCN(CCN(C)C)CC5)n4Cc4ccccc43)cc2Cl)c1` [Example 202, {10-[(6-Chloro-3,3′-dimethoxy[1,1′-biphenyl]-4-yl)carbonyl]-10,11-dihydro-5H-pyrrolo[2,1-c][1,4]benzodiazepin-3-yl}{4-[2-(dimethylamino)ethyl]-1-piperazinyl}methanone], the inhibition at 0.1 µM was 8%.

Take `Cc1ccccc1-c1ccc(C(=O)N2Cc3ccc(C(=O)N(C)C4CCN(C)C4)n3Cc3ccccc32)cc1` (stereo not drawn) [Example 188, N-Methyl-10-[(2′-methyl[1,1′-biphenyl]-4-yl)carbonyl]-N-(1-methyl-3-pyrrolidinyl)-10,11-dihydro-5H-pyrrolo[2,1-c][1,4]benzodiazepine-3-carboxamide]: the inhibition at 0.1 µM turned out to be 10%.

For `Cc1ccccc1-c1ccc(C(=O)N2Cc3ccc(C(=O)N(C)C4CCN(C)CC4)n3Cc3ccccc32)cc1` [Example 178, N-Methyl-10-[(2′-methyl[1,1′-biphenyl]-4-yl)carbonyl]-N-(1-methyl-4-piperidinyl)-10,11-dihydro-5H-pyrrolo[2,1-c][1,4]benzodiazepine-3-carboxamide], the inhibition at 0.1 µM was 15%.

In the case of `C=CCN1CCN(C(=O)c2ccc3n2Cc2ccccc2N(C(=O)c2ccc(-c4ccccc4C)c(OC)c2)C3)CC1` [Example 225, (4-Allyl-1-piperazinyl){10-[(2-methoxy-2′-methyl[1,1′-biphenyl]-4-yl)carbonyl]-10,11-dihydro-5H-pyrrolo[2,1-c][1,4]benzodiazepin-3-yl}methanone], the inhibition at 0.1 µM is -4%.

As to `Cc1cc(C(=O)N2Cc3ccc(C(=O)NCCN4CCCCC4)n3Cc3ccccc32)ccc1-c1ccccc1C(F)(F)F` [Example 161, 10-{[2-Methyl-2′-(trifluoromethyl)[1,1′-biphenyl]-4-yl]carbonyl}-N-[2-(1-piperidinyl)ethyl]-10,11-dihydro-5H-pyrrolo[2,1-c][1,4]benzodiazepine-3-carboxamide], the inhibition at 0.1 µM came out at 4%.

For `COc1ccccc1-c1ccc(C(=O)N2Cc3ccc(C(=O)N4CCN(CCN5CCOCC5)CC4)n3Cc3ccccc32)cc1OC` [Example 214, {10-[(2,2′-Dimethoxy[1,1′-biphenyl]-4-yl)carbonyl]-10,11-dihydro-5H-pyrrolo[2,1-c][1,4]benzodiazepin-3-yl}{4-[2-(4-morpholinyl)ethyl]-1-piperazinyl}methanone], the inhibition at 0.1 µM amounted to 11%.

For `Cc1ccccc1-c1ccc(C(=O)N2Cc3ccc(C(=O)NCCC4CCCN4C)n3Cc3ccccc32)cc1C` (stereo not drawn) [Example 163, 10-[(2,2′-Dimethyl[1,1′-biphenyl]-4-yl)carbonyl]-N-[2-(1-methyl-2-pyrrolidinyl)ethyl]-10,11-dihydro-5H-pyrrolo[2,1-c][1,4]benzodiazepine-3-carboxamide], the inhibition at 0.1 µM came to 13%.

As for `COc1cc(C(=O)N2Cc3ccc(C(=O)NCCC4CCCN4C)n3Cc3ccccc32)ccc1-c1cccc2ccccc12` (stereo not drawn) [Example 170, 10-[3-Methoxy-4-(1-naphthyl)benzoyl]-N-[2-(1-methyl-2-pyrrolidinyl)ethyl]-10,11-dihydro-5H-pyrrolo[2,1-c][1,4]benzodiazepine-3-carboxamide], the inhibition at 0.1 µM worked out at 27%.

For the compound `Cc1cc(C(=O)N2Cc3ccc(C(=O)N4CCN(CCN5CCOCC5)CC4)n3Cc3ccccc32)ccc1-c1ccccc1C(F)(F)F` [Example 216, (10-{[2-Methyl-2′-(trifluoromethyl)[1,1′-biphenyl]-4-yl]carbonyl}-10,11-dihydro-5H -pyrrolo[2,1-c][1,4]benzodiazepin-3-yl){4-[2-(4-morpholinyl)ethyl]-1-piperazinyl}methanone], the inhibition at 0.1 µM was 0%.

Turning to `C=CCN1CCN(C(=O)c2ccc3n2Cc2ccccc2N(C(=O)c2ccc(-c4ccccc4C)cc2)C3)CC1` [Example 224, (4-Allyl-1-piperazinyl){10-[(2′-methyl[1,1′-biphenyl]-4-yl)carbonyl]-10,11-dihydro-5H -pyrrolo[2,1-c][1,4]benzodiazepin-3-yl}methanone], the inhibition at 0.1 µM came to 7%.

Turning to `COc1cc(C(=O)N2Cc3ccc(C(=O)N(C)C4CCN(C)CC4)n3Cc3ccccc32)ccc1-c1ccccc1C` [Example 179, 10-[(2-Methoxy-2′-methyl[1,1′-biphenyl]-4-yl)carbonyl]-N-methyl-N-(1-methyl-4-piperidinyl)-10,11-dihydro-5H-pyrrolo[2,1-c][1,4]benzodiazepine-3-carboxamide], the inhibition at 0.1 µM was found to be 23%.

On to `COc1ccccc1-c1ccc(C(=O)N2Cc3ccc(C(=O)N(C)C4CCN(C)CC4)n3Cc3ccccc32)cc1OC` [Example 183, 10-[(2,2′-Dimethoxy[1,1′-biphenyl]-4-yl)carbonyl]-N-methyl-N-(1-methyl-4-piperidinyl)-10,11-dihydro-5H-pyrrolo[2,1-c][1,4]benzodiazepine-3-carboxamide], for which the inhibition at 0.1 µM came out at 18%.

Turning to `Cc1cc(C(=O)N2Cc3ccc(C(=O)N4CCN(C(=O)OC(C)(C)C)CC4)n3Cc3ccccc32)ccc1-c1ccccc1C(F)(F)F` [Example 6, 4-[[10,11-Dihydro-10-[[2-methyl-2′-trifluoromethyl[1,1′-biphenyl]-4-yl]carbonyl]-5H-pyrrolo[2,1-c][1,4]benzodiazepin-3-yl]carbonyl]-1-piperazine-carboxylic acid, tert-butyl ester], the inhibition at 0.1 µM was 13%.

Turning to `COc1cccc(-c2ccc(C(=O)N3Cc4ccc(C(=O)N5CCN(C(C)C)CC5)n4Cc4ccccc43)cc2OC)c1` [Example 242, {10-[(2,3′-Dimethoxy[1,1′-biphenyl]-4-yl)carbonyl]-10,11-dihydro-5H-pyrrolo[2,1-c][1,4]benzodiazepin-3-yl}(4-isopropyl-1-piperazinyl)methanone], the inhibition at 0.1 µM was 25%.

Take `COc1cc(C(=O)N2Cc3ccc(C(=O)N(C)C4CCN(C)CC4)n3Cc3ccccc32)ccc1-c1cccc2ccccc12` [Example 182, 10-[3-Methoxy-4-(1-naphthyl)benzoyl]-N-methyl-N-(1-methyl-4-piperidinyl)-10,11-dihydro-5H-pyrrolo[2,1-c][1,4]benzodiazepine-3-carboxamide]: the inhibition at 0.1 µM turned out to be 35%.

For the compound `COc1cc(C(=O)N2Cc3ccc(C(=O)N(C)C4CCN(C)C4)n3Cc3ccccc32)ccc1-c1cccc2ccccc12` (stereo not drawn) [Example 192, 10-[3-Methoxy-4-(1-naphthyl)benzoyl]-N-methyl-N-(1-methyl-3-pyrrolidinyl)-10,11-dihydro-5H-pyrrolo[2,1-c][1,4]benzodiazepine-3-carboxamide], the inhibition at 0.1 µM was 28%.

Regarding `Cc1cc(C(=O)N2Cc3ccc(C(=O)N(C)C4CCN(C)CC4)n3Cc3ccccc32)ccc1-c1ccccc1C(F)(F)F` [Example 184, N-Methyl-N-(1-methyl-4-piperidinyl)-10-{[2-methyl-2′-(trifluoromethyl)[1,1′-biphenyl]-4-yl]carbonyl}-10,11-dihydro-5H-pyrrolo[2,1-c][1,4]benzodiazepine-3-carboxamide], the inhibition at 0.1 µM is 9%.

In the case of `COc1cccc(-c2cc(OC)c(C(=O)N3Cc4ccc(C(=O)N(C)C5CCN(C)CC5)n4Cc4ccccc43)cc2Cl)c1` [Example 181, 10-[(6-Chloro-3,3′-dimethoxy[1,1′-biphenyl]-4-yl)carbonyl]-N-methyl-N-(1-methyl4-piperidinyl)-10,11-dihydro-5H-pyrrolo[2,1-c][1,4]benzodiazepine-3-carboxamide], the inhibition at 0.1 µM amounted to 12%.

As for `COc1cccc(-c2cc(OC)c(C(=O)N3Cc4ccc(C(=O)N(C)C5CCN(C)C5)n4Cc4ccccc43)cc2Cl)c1` (stereo not drawn) [Example 191, 10-[(6-Chloro-3,3′-dimethoxy[1,1′-biphenyl]-4-yl)carbonyl]-N-methyl-N-(1-methyl-3-pyrrolidinyl)-10,11-dihydro-5H-pyrrolo[2,1-c][1,4]benzodiazepine-3-carboxamide], the inhibition at 0.1 µM was 17%.
